In ChEMBL document CHEMBL6078612, “Novel strategies based on natural products and synthetic derivatives to overcome resistance in Mycobacterium tuberculosis” (Eur J Med Chem, 2024):
Values after ≈ are worked out from the molar mass of the structure shown.

System: Mycobacterium tuberculosis
Assay: Antimycobacterial activity against multi-drug resistant Mycobacterium tuberculosis
Assay type: functional

CC(=O)NC[C@H]1CN(c2ccc(N3CCOCC3)c(F)c2)C(=O)O1 [LINEZOLID]
MIC: 0.125 µg/mL (≈ 0.371 µM)

H-GWLDVAKKIGKAAFNVAKNFI-OH
MIC: < 0.98 µg/mL
